This is an account of results in PMC4301629 (PLoS ONE, 2015).

In general, pKB refers to the KB on a negative log10 scale, so that one unit is a factor of ten.

In experiment [1] the target is T1, α1A-AR (Homo sapiens, UniProt P35348).
T1 sequence (P35348 1-466): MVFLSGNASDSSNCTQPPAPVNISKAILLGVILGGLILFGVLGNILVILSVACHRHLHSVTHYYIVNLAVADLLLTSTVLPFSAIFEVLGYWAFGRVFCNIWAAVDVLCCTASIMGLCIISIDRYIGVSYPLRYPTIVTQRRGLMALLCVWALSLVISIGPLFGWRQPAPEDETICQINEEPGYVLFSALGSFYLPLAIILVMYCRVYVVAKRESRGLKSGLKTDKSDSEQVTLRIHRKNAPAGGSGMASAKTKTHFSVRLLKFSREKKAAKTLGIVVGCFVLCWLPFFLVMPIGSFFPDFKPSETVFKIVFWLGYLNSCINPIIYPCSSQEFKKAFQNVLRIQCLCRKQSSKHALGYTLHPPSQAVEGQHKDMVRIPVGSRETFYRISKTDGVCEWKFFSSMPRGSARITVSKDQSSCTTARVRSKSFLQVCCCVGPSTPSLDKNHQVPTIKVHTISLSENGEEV
Nature of the experiment: MAPK activation (AlphaScreen SureFire p-ERK) in α1A-AR transduced HEK-293/EBNA cells. Details: expressed in transfected cells; host or cells: HEK-293/EBNA (baculovirus transduction, NaBu induction). In kind it is cell-based. As to conditions: data not shown. The method, then: (§1) Prior to experiments, cells were transduced with baculovirus strains designed for transient expression of α1A-AR or aldehyde oxidase (negative control). This was performed by incubating cells with virus (MOI 100–150) for 3 to 4 h, followed by exchange into fresh serum free growth medium supplemented with 4 mM sodium butyrate (NaBu). Cells were grown for another 14 to 18 h and then examined for agonist-evoked responses in transient Ca^2+ release, IP accumulation or pERK activation assays. The surface receptor expression density was determined by flow cytometry via immunofluorescence labeling of an N-terminal HA epitope tag on the receptor and radioligand binding in partially purified membranes.
Graphs shown reflect either pooled or representative data (see figure legends). For concentration-response analysis, results from Ca^2+ mobilization experiments were plotted as ΔF/F0 vs. agonist concentration and fit to a sigmoidal concentration-response equation using the GraphPad Prism software package. […] For radioligand binding experiments, B max values were calculated from maximum binding using the equation B max = (SB × ([…] + [L])/[L]), where SB is the specific binding expressed as fmol per mg of membrane protein, and [L] is the ligand concentration.
(In general: In Alpha technology, singlet oxygen from a donor bead excites a nearby acceptor bead.)

Experiment [2] has as its system α1A-AR. Put plainly: Ca2+ transient response (FLIPR, fluo3) in α1A-AR transduced HEK-293/EBNA cells. In kind it is cell-based. The settings on record: α1A-AR HEK-293/EBNA; for effect of antagonist on Iso-evoked Ca2+ response: RS100329 10 nM, ICI 118551 10 nM, atenolol 1 μM. As to the method: as §1
(§2) Cells were resuspended in Hank’s balanced salt solution (Invitrogen) supplemented with 2 mM CaCl2, 10 mM HEPES pH 7.4, 2.5 mM probenecid, plus 1g/L each of glucose and bovine serum albumin (BSA), and seeded in poly-D-lysine coated 96-well black plates with transparent bottom (Costar) at a density of 50,000 cells/0.1 mL per well. Cells were then incubated for 1 h at 37°C with an additional 0.1 mL of buffer containing 4 μM fluo3-AM that was diluted from a stock solution containing 1 mM fluo3-AM dye in DMSO with 10% pluronic acid. After dye loading incubation, plates were washed twice with 100 μL of buffer and refilled with 100 μL of assay buffer. In experiments testing the effect of antagonists, 25 μL of buffer from wells of washed cells were replaced with 25 μL of vehicle or 4× antagonist solution. Pre-incubation of ligand with dye-loaded cells proceeded for 5–30 minutes immediately prior to measurements of agonist-evoked responses. Agonist-evoked Ca^2+ mobilization responses of cell populations were monitored at room temperature simultaneously in all wells of the assay plate using the plate-imaging fluorometric reader FLIPR (MDS Analytical Technologies, Sunnyvale, CA). […] The amplitudes of Ca^2+ transient responses are reported as ΔF/F0, or fold-change in Ca^2+ dye fluorescence relative to the baseline signal ΔF/F0 = (F-F0)/F0 +1 (where ΔF is maximal fluorescence intensity observed following agonist application, F0 = baseline fluorescence, or average intensity measured over the 10 s interval prior to agonist application). Image acquisition rates were varied from 1 Hz during the first 100 s of measurements to 0.5 Hz for the remaining time of the recording.
(§3) Graphs shown reflect either pooled or representative data (see figure legends). For concentration-response analysis, results from Ca^2+ mobilization experiments were plotted as ΔF/F0 vs. agonist concentration and fit to a sigmoidal concentration-response equation using the GraphPad Prism software package. In cases where biphasic concentration-response curves were observed data were fit to a two-site concentration-response model: F(X)=R0+(Rmax−R0)[Fr1/(1+10^X-logEC50,1)+(1−Fr1)/(1+10^X-logEC50,2)] (1) , where X is the logarithm of the agonist concentration, R0 and Rmax are respectively the response minimum and maximum; Fr1 is the response fraction attributable to receptor characterized by half effective concentration of the first response phase (EC50,1), with the reminder response attributable to the second half effective concentration (EC50,2). For radioligand binding experiments, B max values were calculated from maximum binding using the equation B max = (SB × ([…] + [L])/[L]), where SB is the specific binding expressed as fmol per mg of membrane protein, and [L] is the ligand concentration.

The test system of another experiment is HEK293/EBNA cells. Nature of the experiment: IP accumulation (IP-One HTRF) in untransduced HEK-293/EBNA cells. In kind it is cell-based. As to conditions: HEK293/EBNA untransduced. In general terms: Time-resolved FRET reads energy transfer from a long-lived donor to a nearby acceptor.
Experiment [3] has as its target T1, α1A-AR. Nature of the experiment: LC-MS detection of IP1, IP2 and IP3 in α1A-AR_CHO stable cells. In kind it is cell-based. Details: expressed in transfected cells. As to conditions: α1A-AR CHO, Iso up to 1 mM. The method, then: (§4) After that, the medium was replaced with agonist solution in assay buffer (20 mM HEPES, 10 mM glucose, 1.8 mM CaCl2, 0.5 mM MgSO4, in HBSS 1X buffer, 50 mM LiCl) and cells were incubated at 37°C for 30 min. Stimulation was stopped by exchange of assay buffer with lysis buffer (100 μL 0.1N HCl/MeOH), and lysis proceeded for 30 min at 4°C. Cellular levels of inositol phosphates were determined using a Thermo LC-MS detection system following a published protocol. Chromatography was performed employing a BioBasic column AX (50 × 2.1 mm, Thermo). The mobile phase consisted of solvent A: 10 mM ammonium acetate, pH 6 in 30/70 acetonitrile/water, and solvent B: 1 mM ammonium acetate, pH 11 in 30/70 acetonitrile/water. A gradient solvent system was used starting with 0% solvent B, and analytes were eluted by increasing solvent B to 100% over 3 min. Each data point represents the average of triplicate determinations and each experiment was performed at least three times independently.
IP1, IP2, and IP3 levels were determined via LC-MS. Plots are representative of three independent experiments with each data point being the average of triplicates.

The target of experiment [4] is T1, α1A-AR. Put plainly: Ca2+ transient response (FLIPR, fluo3) in α1A-AR transduced HEK-293/EBNA cells. It is filed as cell-based. Details: expressed in transfected cells; host or cells: HEK-293/EBNA (baculovirus transduction, NaBu induction). The settings on record: 100 nM NE, α1A-AR_HEK-293/EBNA. The method, then: as §1, §2, §3
In experiment [5] the target is T1, α1A-AR. Put plainly: LC-MS detection of IP1, IP2 and IP3 in α1A-AR transduced HEK-293/EBNA cells. In kind it is cell-based. Also noted: expressed in transfected cells; host or cells: HEK-293/EBNA (baculovirus transduction, NaBu induction). As to conditions: Iso up to 10 mM. The method, then: as §4, with “Virally transduced HEK-293/EBNA cells were resuspended in growth medium and seeded in poly-D-lysine coated 96-well black plates at a density of 100,000 cells/0.1 mL per well, Cells were allowed to attach for 2 hours at 37°C in a humidified atmosphere of 95% air and 5% CO2. After” for “After”

The target of the next experiment is T2, β2-AR (Homo sapiens, UniProt P07550).
T2 construct: HEK-293/EBNA cells are known to express β2-AR endogenously; endogenous in cells; host or cells: HEK-293/EBNA (untransduced or negative-control transduced)
Put plainly: Ca2+ transient response (FLIPR, fluo3) in untransduced / negative control HEK-293/EBNA cells. As to conditions: non-transduced control cells; ICI 118551 10 nM, RS100329 10 nM, atenolol 1 μM. It is filed as cell-based. As to the method: as §1
Cells were resuspended in Hank’s balanced salt solution (Invitrogen) supplemented with 2 mM CaCl2, 10 mM HEPES pH 7.4, 2.5 mM probenecid, plus 1g/L each of glucose and bovine serum albumin (BSA), and seeded in poly-D-lysine coated 96-well black plates with transparent bottom (Costar) at a density of 50,000 cells/0.1 mL per well. […] Agonist-evoked Ca^2+ mobilization responses of cell populations were monitored at room temperature simultaneously in all wells of the assay plate using the plate-imaging fluorometric reader FLIPR (MDS Analytical Technologies, Sunnyvale, CA). […]

Experiment [6] has as its system α1A-AR. As to conditions: for α1A-AR; cited from earlier work.
In experiment [7] the target is T1, α1A-AR. Put plainly: Ca2+ transient response (FLIPR) in α1A-AR_CHO stable cells. It is filed as cell-based. Also noted: expressed in transfected cells. The settings on record: antagonist at 100 nM. The method, then:
as §2, with “In experiments testing the effect of antagonists, 25 μL of buffer from wells of washed cells were replaced with 25 μL of vehicle or 4× antagonist solution. Pre-incubation of ligand with dye-loaded cells proceeded for 5–30 minutes immediately prior to measurements of agonist-evoked responses.” left out, “Image acquisition rates were varied from 1 Hz during the first 100 s of measurements to 0.5 Hz for the remaining time of the recording.” left out
IP1, IP2, and IP3 levels were determined via LC-MS. […]

Experiment [8] concerns the target T1, α1A-AR. Put plainly: IP accumulation (IP-One HTRF) in α1A-AR transduced HEK-293/EBNA cells. It is filed as cell-based. Details: expressed in transfected cells; host or cells: HEK-293/EBNA (baculovirus transduction, NaBu induction). As to conditions: 10 nM antagonist preincubation; large rightward shift in A-61603 potency. As to the method:
as §1
After 10–20 minutes, 10 μL of agonist was added followed by incubation for 5 to 30 minutes. Stimulation was stopped by addition of lysis buffer. Second messenger levels were determined using a homogeneous immunoassay method with time-resolved FRET detection (IP-One HTRF, Cisbio International) according to protocols provided by the supplier. Sample fluorescence was measured with a Nanoscan plate reader (IOM, Berlin). Each data point represents the average of quadruplicate determinations and each experiment was performed at least two times independently.

T2 sequence (P07550 whole entry): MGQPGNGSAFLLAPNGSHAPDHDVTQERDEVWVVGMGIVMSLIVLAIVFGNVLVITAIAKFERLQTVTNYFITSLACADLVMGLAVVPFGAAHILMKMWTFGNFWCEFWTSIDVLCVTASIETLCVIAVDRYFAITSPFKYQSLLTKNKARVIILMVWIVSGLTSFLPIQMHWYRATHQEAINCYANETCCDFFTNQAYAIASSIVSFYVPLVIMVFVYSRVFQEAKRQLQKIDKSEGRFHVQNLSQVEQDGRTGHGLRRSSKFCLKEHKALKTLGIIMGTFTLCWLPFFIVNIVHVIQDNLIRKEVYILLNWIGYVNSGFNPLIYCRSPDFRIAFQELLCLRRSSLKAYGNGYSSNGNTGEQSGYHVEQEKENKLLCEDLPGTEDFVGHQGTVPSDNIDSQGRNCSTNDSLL

As to `COc1cc2ncnc(Nc3cccc(Cl)c3)c2cc1OC` [AG1478], the “effect of EGFR inhibition on Iso induced α1A-AR stimulation of ERK1/2” value on α1A-AR [1] is recorded as “not affected”.
As to `Cc1ccc(OCC(O)C(C)NC(C)C)c2c1CCC2` (centres unmarked) [ICI 118551], the “attenuation of responses to high Iso concentrations” value with α1A-AR [2] (ICI 118551 at 10 nM) was around 50%. In addition, the “effect of antagonist on Iso-evoked Ca2+ response” value in the experiment on α1A-AR [2] is on record as “abolished responses to low Iso concentrations”.
As for `NC[C@H](O)c1ccc(O)c(O)c1` [NE, norepinephrine], the “EC50 IP” value with HEK293/EBNA cells was “BQL”. The “cellular concentration of inositol phosphates IP1, IP2 and IP3” value on α1A-AR [3] is listed as “concentration-dependent increases”. The “time to peak response amplitude post-agonist addition” value on α1A-AR [4] was at most 10 s. At α1A-AR [5], the “cellular levels of inositol phosphates IP1, IP2 and IP3” value is “concentration-dependent increases”.
On to `Cc1c[nH]c(=O)n(CCCN2CCN(c3ccccc3OCC(F)(F)F)CC2)c1=O` [RS100329], for which the “effect of antagonist on Iso-evoked Ca2+ response” value in the experiment on α1A-AR [2] is given as “virtually complete blocking of the low potency phase”; on β2-AR, “ineffective”. Moreover, the pKB in the experiment on α1A-AR [6] was 9.6. Besides, at α1A-AR [7], the “effect of antagonist pretreatment on Iso Ca2+ response” value is given as “blocked”. Besides, at α1A-AR [8], the “effect of antagonist on A-61603-stimulated IP accumulation” value is “significantly attenuated IP accumulation”.
Consider `CC(C)NCC(O)COc1ccc(CC(N)=O)cc1` (centres unmarked) [atenolol], for which the “effect of antagonist on Iso-evoked Ca2+ response” value in the experiment on α1A-AR [2] was “had no effect”.
As to `CC(C)NCC(O)COc1cccc2ccccc12` (centres unmarked) [propranolol], the “effect of antagonist pretreatment on Iso Ca2+ response” value on α1A-AR [7] is “insensitive”.
